Measurements reported in patent publication US5916906A, “Compositions comprising nicotinylalanine and an inhibitor of glycine conjugation or vitamin B6” (priority 1997, dated 1999).

Key:
kynureninase = conditions: co-factor for kynureninase (Takeuchi and Shibata 1984); cited from earlier work
[1] = test system: poly (ADP-ribose) synthetase; conditions: crude or partially purified enzyme (Banasik 1992); cited from earlier work
HIV-1 infected cells = conditions: cultures of HIV-1 infected cells (Yamagoe 1991); cited from earlier work
[2] = human, in vivo; cited from earlier work
[3] = rodents (Shibata 1989); cited from earlier work
[4] = humans (Levy 1965); cited from earlier work
[5] = Plasma nicotinamide, NAL and NAL-X levels by HPLC after i.p. nicotinylalanine with or without ASA in uninfected mice; assay type: in vivo, C57BL/6 mice; conditions: ASA at 20 and 100 mg/kg added to NAL
Procedure: The concentration of nicotinamide and its major metabolites were determined by comparison of peak area ratios of the unknown versus internal standard (6-methylnicotinamide, Sigma Chemical Company) to the standard curves run in control mouse blood plasma.
Mice were treated with racemic nicotinylalanine alone (400 mg/kg) or in combination with acetyl salicylic acid (ASA) at a dose of either 20 mg/kg or 100 mg/kg body weight. […] Control mice received the vehicle for the drug compositions, being phosphate buffered saline (PBS), at the same volume on the same dose schedule as the drug-treated mice. Chronic dosing was performed daily for two weeks, Monday through Friday, and one group of mice received only a single (acute) dose of nicotinylalanine. All mice were killed two hours after their final dose and blood was collected by cardiac puncture and stored on ice, until centrifugation in a microfuge at 10,000 rpm to obtain plasma.
Concentrations of nicotinamide, nicotinamide-oxide, 1-methyl-nicotinamide, and nicotinylalanine extracted from 90% methanol, dried under N2, and reconstituted in water as above were determined by comparison of the peak area ratios of the unknown vs. the internal standard to the standard curve. Concentrations of the unidentified nicotinylalanine metabolite (NAL-X) were determined in the same way as above, except peaks were compared to the standard curve for known nicotinylalanine. The results are expressed as nanomoles of nicotinamide and nicotinylalanine per ml of plasma (nmol/ml).

## Cc1ncc(COP(=O)(O)O)c(C=O)c1O [pyridoxal phosphate]
kynureninase
  Rate of conversion of nicotinylalanine to nicotinamide (in words): increases the rate of conversion of nicotinylalanine to nicotinamide

## NC(=O)c1cccnc1 [nicotinamide]
[1]
  Inhibition of poly (ADP-ribose) synthetase (in words): effective inhibitors of poly (ADP-ribose) synthetase
HIV-1 infected cells
  Antiviral activity (in words): significant antiviral activity
[2]
  Side effects: without any significant side effects
[3]
  Fraction converted to nicotinuric acid: approximately 16%

## NC(=O)c1ccccc1 [benzamide]
HIV-1 infected cells
  Antiviral activity (in words): significant antiviral activity

## CC(=O)Oc1ccccc1C(=O)O [ASA, acetylsalicylic acid, reference compound]
[4]
  Fraction conjugated to form salicyluric acid: up to 75%
[5]
  Effect of added ASA on NAL-dependent nicotinamide plasma levels: increases the NAL-dependent nicotinamide plasma levels in a dose-related manner
